Source: patent US9284333B2, “Fused pyrroledicarboxamides and their use as pharmaceuticals” (SANOFI, priority 2012, dated 2016)

Target: Human TASK-1 channels (Homo sapiens (Human), UniProt O14649)
Assay: Determination of the activity on the TASK-1 channel in Xenopus oocytes (two-microelectrode voltage clamp)
Assay type: cell-based
Details: compound concentration 5 μM
How it was run: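 Current during 500 ms pulses to 40 mV from a −90 mV hold was recorded in oocytes expressing human TASK-1 for two days after cRNA injection. Compounds were added cumulatively to the ND96 bath (pH 7.4, room temperature). IC50 came from dose-response fitting of inhibition relative to pre-compound current.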

Sequence of Human TASK-1 channels (O14649 whole entry): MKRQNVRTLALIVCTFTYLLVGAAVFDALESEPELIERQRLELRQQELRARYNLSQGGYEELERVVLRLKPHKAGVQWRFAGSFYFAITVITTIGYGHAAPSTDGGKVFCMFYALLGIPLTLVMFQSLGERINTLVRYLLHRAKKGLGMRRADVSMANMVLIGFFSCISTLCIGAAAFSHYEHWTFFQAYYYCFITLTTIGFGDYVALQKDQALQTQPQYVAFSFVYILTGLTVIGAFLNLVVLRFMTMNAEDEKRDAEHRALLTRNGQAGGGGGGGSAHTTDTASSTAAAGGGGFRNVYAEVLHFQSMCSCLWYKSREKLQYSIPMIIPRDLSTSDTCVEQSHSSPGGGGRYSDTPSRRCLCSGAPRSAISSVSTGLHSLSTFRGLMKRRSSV

| inhibition at 5 µM [%] | Compound |
| --- | --- |
| 80 | CC[C@H](NC(=O)c1cc(C(=O)N2CCC[C@@H]2C)n2c1COCC2)c1cnc(C(F)(F)F)cc1Cl [16bs, 6-((S)-2-Methyl-pyrrolidine-1-carbonyl)-3,4-dihydro-1H-pyrrolo[2,1-c][1,4]oxazine-8-carboxylic acid [(S)-1-(4-chloro-6-trifluoromethyl-pyridin-3-yl)-propyl]-amide] |
| 47 | CC[C@@H](NC(=O)c1cc(C(=O)N2CCC[C@@H]2C)n2c1COCC2)c1cnc(C(F)(F)F)nc1 [16bt, 6-((S)-2-Methyl-pyrrolidine-1-carbonyl)-3,4-dihydro-1H-pyrrolo[2,1-c][1,4]oxazine-8-carboxylic acid [(R)-1-(2-trifluoromethyl-pyrimidin-5-yl)-propyl]-amide] |

Same assay, conditions: human TASK-1 expressed in Xenopus oocytes, room temperature; read-out: IC50 value for TASK-1 inhibition

| Compound | IC50 [nM] |
| --- | --- |
| CC[C@@H](NC(=O)c1cc(C(=O)N2CCC[C@@H]2c2cnccn2)c2n1CCOC2)c1ccc(F)cc1F [16pj, 8-((R)-2-Pyrazin-2-yl-pyrrolidine-1-carbonyl)-3,4-dihydro-1H-pyrrolo[2,1-c][1,4]oxazine-6-carboxylic acid [(R)-1-(2,4-difluoro-phenyl)-propyl]-amide] | 1100 |
| CC[C@@H](NC(=O)c1cc(C(=O)NCc2nnn(C)n2)n2c1COCC2)c1ccccc1 [16rs, 3,4-Dihydro-1H-pyrrolo[2,1-c][1,4]oxazine-6,8-dicarboxylic acid 6-[(2-methyl-2H-tetrazol-5-ylmethyl)-amide] 8-[((R)-1-phenyl-propyl)-amide]] | 2500 |
| CC[C@@H](NC(=O)c1cc(C(=O)N(C)CC2CCOCC2)n2c1COCC2)c1ccccc1 [16gd, 3,4-Dihydro-1H-pyrrolo[2,1-c][1,4]oxazine-6,8-dicarboxylic acid 6-[methyl-(tetrahydro-pyran-4-ylmethyl)-amide] 8-[((R)-1-phenyl-propyl)-amide]] | 5400 |
| CC[C@@H](NC(=O)c1cc(C(=O)N2CCC[C@@H]2C(O)C2CC2)n2c1COCC2)c1ccccc1 (stereo partly drawn) [16et, 6-[(R)-2-(Cyclopropyl-hydroxy-methyl)-pyrrolidine-1-carbonyl]-3,4-dihydro-1H-pyrrolo[2,1-c][1,4]oxazine-8-carboxylic acid ((R)-1-phenyl-propyl)-amide] | 1300 |
| CC[C@@H](NC(=O)c1cc(C(=O)N2CC[C@H](OC)C2)n2c1COCC2)c1ccccc1 [16ek, 6-((S)-3-Methoxy-pyrrolidine-1-carbonyl)-3,4-dihydro-1H-pyrrolo[2,1-c][1,4]oxazine-8-carboxylic acid ((R)-1-phenyl-propyl)-amide] | 560 |
| CCC(NC(=O)c1cc(C(=O)N[C@H](CC)c2ccccc2)c2n1CCOC2)c1cccc(S(N)(=O)=O)c1 (stereo partly drawn) [16ji, 3,4-Dihydro-1H-pyrrolo[2,1-c][1,4]oxazine-6,8-dicarboxylic acid 8-[((R)-1-phenyl-propyl)-amide] 6-{[1-(3-sulfamoyl-phenyl)-propyl]-amide}] | 1900 |
| CC[C@@H](NC(=O)c1cc(C(=O)N2CCC[C@@H]2C)n2c1CCCC2)c1ccc(C(F)(F)F)nc1 [16lw, 3-((S)-2-Methyl-pyrrolidine-1-carbonyl)-5,6,7,8-tetrahydro-indolizine-1-carboxylic acid [(R)-1-(6-trifluoromethyl-pyridin-3-yl)-propyl]-amide] | 600 |
| CC[C@@H](NC(=O)c1cc(C(=O)N2CCC[C@@H]2C)n2c1COCC2)c1cccc(C#N)c1 [16aj, 6-((S)-2-Methyl-pyrrolidine-1-carbonyl)-3,4-dihydro-1H-pyrrolo[2,1-c][1,4]oxazine-8-carboxylic acid [(R)-1-(3-cyano-phenyl)-propyl]-amide] | 550 |
| CC[C@@H](NC(=O)c1cc(C(=O)N2CCC[C@@H]2C)n2c1COCC2)c1ccc(OC)nc1 [16ai, 6-((S)-2-Methyl-pyrrolidine-1-carbonyl)-3,4-dihydro-1H-pyrrolo[2,1-c][1,4]oxazine-8-carboxylic acid [(R)-1-(6-methoxy-pyridin-3-yl)-propyl]-amide] | 1400 |
| CC[C@@H](NC(=O)c1cc(C(=O)N2CCC[C@@H]2C)n2c1COCC2)c1ccc(C#N)cc1Cl [16bb, 6-((S)-2-Methyl-pyrrolidine-1-carbonyl)-3,4-dihydro-1H-pyrrolo[2,1-c][1,4]oxazine-8-carboxylic acid [(R)-1-(2-chloro-4-cyano-phenyl)-propyl]-amide] | 790 |
| CC[C@H](NC(=O)c1cc(C(=O)N[C@@H](CC)c2ncccn2)c2n1CCOC2)c1ccccc1 [16kc] | 1800 |
| CC[C@@H](NC(=O)c1cc(C(=O)N2CCC[C@@H]2c2cnccn2)n2c1COCC2)c1ccccc1 [16fp, 6-((R)-2-Pyrazin-2-yl-pyrrolidine-1-carbonyl)-3,4-dihydro-1H-pyrrolo[2,1-c][1,4]oxazine-8-carboxylic acid ((R)-1-phenyl-propyl)-amide] | 1900 |

Other lines, results leading:

| IC50 [nM] | Compound |
| --- | --- |
| 540 | CC[C@@H](NC(=O)c1cc(C(=O)NCc2nc3ccccc3o2)c2n1CCOC2)c1ccccc1 [16js, 3,4-Dihydro-1H-pyrrolo[2,1-c][1,4]oxazine-6,8-dicarboxylic acid 8-[(benzooxazol-2-ylmethyl)-amide] 6-[((R)-1-phenyl-propyl)-amide]] |
| 340 | CC[C@@H](NC(=O)c1cc(C(=O)N2CCC[C@@H]2C)n2c1COCC2)c1cc(F)c(C#N)c(F)c1 [16ca, 6-((S)-2-Methyl-pyrrolidine-1-carbonyl)-3,4-dihydro-1H-pyrrolo[2,1-c][1,4]oxazine-8-carboxylic acid [(R)-1-(4-cyano-3,5-difluoro-phenyl)-propyl]-amide] |
| 310 | CC[C@@H](NC(=O)c1cc(C(=O)NCC2CCOCC2)n2c1CCCC2)c1ccccc1 [16mq, 5,6,7,8-Tetrahydro-indolizine-1,3-dicarboxylic acid 1-[((R)-1-phenyl-propyl)-amide] 3-[(tetrahydro-pyran-4-ylmethyl)-amide]] |
| 310 | CC[C@@H](NC(=O)c1cc(C(=O)NCc2cnccn2)n2c1COCC2)c1ccccc1 [16gt, 3,4-Dihydro-1H-pyrrolo[2,1-c][1,4]oxazine-6,8-dicarboxylic acid 8-[((R)-1-phenyl-propyl)-amide] 6-[(pyrazin-2-ylmethyl)-amide]] |
| 310 | CC(NC(=O)c1cc(C(=O)N[C@@H](c2ccc(F)cc2)C(C)C)n2c1COCC2)c1ccno1 (stereo partly drawn) [16lk, 3,4-Dihydro-1H-pyrrolo[2,1-c][1,4]oxazine-6,8-dicarboxylic acid 6-{[(R)-1-(4-fluoro-phenyl)-2-methyl-propyl]-amide} 8-[(1-isoxazol-5-yl-ethyl)-amide]] |
| 250 | CC[C@@H](NC(=O)c1cc(C(=O)N2CCC[C@@H]2C)n2c1COCC2)c1ccccc1C(F)(F)F [16s, 6-((S)-2-Methyl-pyrrolidine-1-carbonyl)-3,4-dihydro-1H-pyrrolo[2,1-c][1,4]oxazine-8-carboxylic acid [(R)-1-(2-trifluoromethyl-phenyl)-propyl]-amide] |
| 250 | CC[C@@H](NC(=O)c1cc(C(=O)N[C@H](CC)c2ccccc2)n2c1COCC2)c1ccc(OC)nc1 [16jo, 3,4-Dihydro-1H-pyrrolo[2,1-c][1,4]oxazine-6,8-dicarboxylic acid 8-{[(R)-1-(6-methoxy-pyridin-3-yl)-propyl]-amide} 6-[((R)-1-phenyl-propyl)-amide]] |
| 220 | CC[C@@H](NC(=O)c1cc(C(=O)N[C@H](C)c2ccc(F)cc2)n2c1COCC2)c1ccc(OC)nc1 [16du] |
| 210 | CC[C@@H](NC(=O)c1cc(C(=O)N2CCC[C@@H]2C)n2c1COCC2)c1ccnc(C(F)(F)F)c1F [16bu, 6-((S)-2-Methyl-pyrrolidine-1-carbonyl)-3,4-dihydro-1H-pyrrolo[2,1-c][1,4]oxazine-8-carboxylic acid [(R)-1-(3-fluoro-2-trifluoromethyl-pyridin-4-yl)-propyl]-amide] |
| 210 | CC[C@@H](NC(=O)c1cc(C(=O)N2CCC[C@@H]2C)n2c1COCC2)c1ccc(C(F)(F)F)cc1F [16ct, 6-((S)-2-Methyl-pyrrolidine-1-carbonyl)-3,4-dihydro-1H-pyrrolo[2,1-c][1,4]oxazine-8-carboxylic acid [(R)-1-(2-fluoro-4-trifluoromethyl-phenyl)-propyl]-amide] |
| 170 | CC[C@@H](NC(=O)c1cc(C(=O)NCc2nccs2)n2c1COCC2)c1ccccc1 [16il, 3,4-Dihydro-1H-pyrrolo[2,1-c][1,4]oxazine-6,8-dicarboxylic acid 8-[((R)-1-phenyl-propyl)-amide] 6-[(thiazol-2-ylmethyl)-amide]] |
| 160 | CC[C@@H](NC(=O)c1cc(C(=O)N[C@H](CC)c2ccccc2)n2c1COCC2)c1ccccc1 [16i, 3,4-Dihydro-1H-pyrrolo[2,1-c][1,4]oxazine-6,8-dicarboxylic acid bis-[((R)-1-phenyl-propyl)-amide]] |
| 140 | CC[C@@H](NC(=O)c1cc(C(=O)N2CCC[C@@H]2C)n2c1COCC2)c1cnc(Cl)c(Cl)c1 [16co, 6-((S)-2-Methyl-pyrrolidine-1-carbonyl)-3,4-dihydro-1H-pyrrolo[2,1-c][1,4]oxazine-8-carboxylic acid [(R)-1-(5,6-dichloro-pyridin-3-yl)-propyl]-amide] |
| 90 | CC[C@@H](NC(=O)c1cc(C(=O)N2CCC[C@@H]2C)c2n1CCOC2)c1ccccc1Cl [16nh, 8-((S)-2-Methyl-pyrrolidine-1-carbonyl)-3,4-dihydro-1H-pyrrolo[2,1-c][1,4]oxazine-6-carboxylic acid [(R)-1-(2-chloro-phenyl)-propyl]-amide] |
| 76 | CC[C@@H](NC(=O)c1cc(C(=O)N2CCC[C@@H]2C)n2c1COCC2)c1cccc(C(F)(F)F)n1 [16ap] |
| 21 | CC[C@@H](NC(=O)c1cc(C(=O)N2CCC[C@@H]2C)n2c1COCC2)c1ccc(C(F)(F)F)s1 [16cf, 6-((S)-2-Methyl-pyrrolidine-1-carbonyl)-3,4-dihydro-1H-pyrrolo[2,1-c][1,4]oxazine-8-carboxylic acid [(R)-1-(5-trifluoromethyl-thiophen-2-yl)-propyl]-amide] |
